Values of other authors in PubChem BioAssay AID1259409 (Chemical Carcinogenesis Research Information System (CCRIS), 2018).

Tested on: rodent chemically induced tumor inhibition, incidence and multiplicity
Assay: CCRIS tumor inhibitor studies

## CCC[Se]C#N
Carcinogen: 7,12-DIMETHYLBENZ[A]ANTHRACENE, 57-97-6, Dose [Inhibitor]: 0.1, 2 PPM (SELENIUM) IN DIET FOR 3 WK BEGINNING 2 WK PRIOR TO CARCINOGEN DOSE (STUDY DURATION: 25 WK), Route [Inhibitor]: ORAL, Species: RAT, Strain/Sex: SPRAGUE-DAWLEY/FEMALE, Target Tissue: Type of Lesion: MAMMARY GLAND: TUMOR, Dose [Carcinogen]: 10 MG ONCE, Promoter: NONE USED
  tumour outcome (control, treated, inhibition, significance): 25/30 (83%), 13/30 (43%), 48%, p<0.05

## O=C(/C=C/c1ccccc1)c1ccccc1
Carcinogen: 4-NITROQUINOLINE-1-OXIDE, 56-57-5, Dose [Inhibitor]: 0, 500 PPM IN DIET FOR 10 WK BEGINNING 1 WK PRIOR TO CARCINOGEN DOSE (STUDY DURATION: 32 WK), Route [Inhibitor]: ORAL, Species: RAT, Strain/Sex: F344/MALE, Target Tissue: Type of Lesion: TONGUE: CARCINOMA, Dose [Carcinogen]: 20 PPM IN DRINKING WATER FOR 8 WK, Promoter: NONE USED
  tumour outcome (control, treated, inhibition, significance): 9/15 (60%), 3/16 (19%), 68%, p<0.05
Carcinogen: 4-NITROQUINOLINE-1-OXIDE, 56-57-5, Dose [Inhibitor]: 0, 500 PPM IN DIET FOR 10 WK BEGINNING 1 WK PRIOR TO CARCINOGEN DOSE (STUDY DURATION: 32 WK), Route [Inhibitor]: ORAL, Species: RAT, Strain/Sex: F344/MALE, Target Tissue: Type of Lesion: TONGUE: PAPILLOMA, Dose [Carcinogen]: 20 PPM IN DRINKING WATER FOR 8 WK, Promoter: NONE USED
  tumour outcome (control, treated, inhibition, significance): 4/15 (27%), 1/16 (6%), 78%, not significant
Carcinogen: 4-NITROQUINOLINE-1-OXIDE, 56-57-5, Dose [Inhibitor]: 0, 500 PPM IN DIET FOR 22 WK BEGINNING 1 WK POST CARCINOGEN TREATMENT (STUDY DURATION: 32 WK), Route [Inhibitor]: ORAL, Species: RAT, Strain/Sex: F344/MALE, Target Tissue: Type of Lesion: TONGUE: CARCINOMA, Dose [Carcinogen]: 20 PPM IN DRINKING WATER FOR 8 WK, Promoter: NONE USED
  tumour outcome (control, treated, inhibition, significance): 9/15 (60%), 3/16 (19%), 68%, p<0.05
Carcinogen: 4-NITROQUINOLINE-1-OXIDE, 56-57-5, Dose [Inhibitor]: 0, 500 PPM IN DIET FOR 22 WK BEGINNING 1 WK POST CARCINOGEN TREATMENT (STUDY DURATION: 32 WK), Route [Inhibitor]: ORAL, Species: RAT, Strain/Sex: F344/MALE, Target Tissue: Type of Lesion: TONGUE: PAPILLOMA, Dose [Carcinogen]: 20 PPM IN DRINKING WATER FOR 8 WK, Promoter: NONE USED
  tumour outcome (control, treated, inhibition, significance): 4/15 (27%), 0/16 (0%), 100%, p<0.05
Carcinogen: BENZO[A]PYRENE, 50-32-8, Dose [Inhibitor]: 0, 0.2 MG/G IN DIET FOR 21 WK BEGINNING 1 WK POST LAST CARCINOGEN DOSE (STUDY DURATION: 23 WK), Route [Inhibitor]: ORAL, Species: MOUSE, Strain/Sex: STRAIN-A/FEMALE, Target Tissue: Type of Lesion: FORESTOMACH: TUMOR, Dose [Carcinogen]: 2 MG IN 0.2 ML COTTONSEED OIL ONCE EACH ON DAYS 1, 3 AND 7 OF STUDY, Promoter: NONE USED
  tumour outcome (control, treated, inhibition, significance): 93%, 100%, -8%, not significant
Carcinogen: BENZO[A]PYRENE, 50-32-8, Dose [Inhibitor]: 0, 1 MG/G IN DIET FOR 21 WK BEGINNING 1 WK POST LAST CARCINOGEN DOSE (STUDY DURATION: 23 WK), Route [Inhibitor]: ORAL, Species: MOUSE, Strain/Sex: STRAIN-A/FEMALE, Target Tissue: Type of Lesion: FORESTOMACH: TUMOR, Dose [Carcinogen]: 2 MG IN 0.2 ML COTTONSEED OIL ONCE EACH ON DAYS 1, 3 AND 7 OF STUDY, Promoter: NONE USED
  tumour outcome (control, treated, inhibition, significance): 93%, 100%, -8%, not significant
Carcinogen: BENZO[A]PYRENE, 50-32-8, Dose [Inhibitor]: 0, 5 MG/G IN DIET FOR 21 WK BEGINNING 1 WK POST LAST CARCINOGEN DOSE (STUDY DURATION: 23 WK), Route [Inhibitor]: ORAL, Species: MOUSE, Strain/Sex: STRAIN-A/FEMALE, Target Tissue: Type of Lesion: FORESTOMACH: TUMOR, Dose [Carcinogen]: 2 MG IN 0.2 ML COTTONSEED OIL ONCE EACH ON DAYS 1, 3 AND 7 OF STUDY, Promoter: NONE USED
  tumour outcome (control, treated, inhibition, significance): 93%, 100%, -8%, not significant
Carcinogen: BENZO[A]PYRENE, 50-32-8, Dose [Inhibitor]: 0, 10 MG/G IN DIET FOR 21 WK BEGINNING 1 WK POST LAST CARCINOGEN DOSE (STUDY DURATION: 23 WK), Route [Inhibitor]: ORAL, Species: MOUSE, Strain/Sex: STRAIN-A/FEMALE, Target Tissue: Type of Lesion: FORESTOMACH: TUMOR, Dose [Carcinogen]: 2 MG IN 0.2 ML COTTONSEED OIL ONCE EACH ON DAYS 1, 3 AND 7 OF STUDY, Promoter: NONE USED
  tumour outcome (control, treated, inhibition, significance): 93%, 100%, -8%, not significant
Carcinogen: N-METHYL-N-NITROSOUREA, 684-93-5, Dose [Inhibitor]: 0, 5 MG/G IN DIET FOR 17 WK BEGINNING 1 WK POST CARCINOGEN DOSE (STUDY DURATION: 18 WK), Route [Inhibitor]: ORAL, Species: RAT, Strain/Sex: SPRAGUE-DAWLEY/FEMALE, Target Tissue: Type of Lesion: MAMMARY GLAND: TUMOR, Dose [Carcinogen]: 50 MG/KG BW ONCE, Promoter: NONE USED
  tumour outcome (control, treated, inhibition, significance): 71%, 36%, 49%, p=0.058
Carcinogen: N-METHYL-N-NITROSOUREA, 684-93-5, Dose [Inhibitor]: 0, 5 MG/G IN DIET STARTING 4 WK POST CARCINOGEN DOSE THEN FED FOR 3 WK ALTERNATING WITH 3 WK ON CONTROL DIET FOR DURATIO, Route [Inhibitor]: ORAL, Species: RAT, Strain/Sex: SPRAGUE-DAWLEY/FEMALE, Target Tissue: Type of Lesion: MAMMARY GLAND: TUMOR, Dose [Carcinogen]: 50 MG/KG BW ONCE, Promoter: NONE USED
  tumour outcome (control, treated, inhibition, significance): 75%, 38%, 49%, p=0.033

## CC(=C/C=C/C(C)=C/C=C/C=C(C)/C=C/C=C(\C)C=C=C1C(C)(C)C[C@H](O)C[C@@]1(C)O)/C=C/[C@@]12O[C@]1(C)C[C@@H](O)CC2(C)C
Carcinogen: 7,12-DIMETHYLBENZ[A]ANTHRACENE, 57-97-6, Dose [Inhibitor]: 0, 0.2 UG IN 0.2 ML ACETONE APPLIED TO BUCCAL POUCH 2/WK FOR 2 WK 1 HR PRIOR TO EACH PROMOTER DOSE (STUDY DURATION: 34 W, Route [Inhibitor]: MUCOUS MEMBRANE, Species: HAMSTER, Strain/Sex: SYRIAN/MALE,FEMALE, Target Tissue: Type of Lesion: BUCCAL POUCH: TUMOR, Dose [Carcinogen]: 200 NMOL IN 0.2 ML ACETONE 3/WK FOR 2 WK, Promoter: 12-O-TETRADECANOYLPHORBOL-13-ACETATE, 16561-29-8
  tumour outcome (control, treated, inhibition, significance): 3/6 (50%), 0/6 (0%), 100%, not calculated
Carcinogen: 7,12-DIMETHYLBENZ[A]ANTHRACENE, 57-97-6, Dose [Inhibitor]: 0, 0.2 UG IN 0.2 ML ACETONE APPLIED TO BUCCAL POUCH 3/WK FOR 2 WK 1 HR PRIOR TO EACH CARCINOGEN DOSE (STUDY DURATION: 34, Route [Inhibitor]: MUCOUS MEMBRANE, Species: HAMSTER, Strain/Sex: SYRIAN/MALE,FEMALE, Target Tissue: Type of Lesion: BUCCAL POUCH: TUMOR, Dose [Carcinogen]: 200 NMOL IN 0.2 ML ACETONE 3/WK FOR 2 WK, Promoter: 12-O-TETRADECANOYLPHORBOL-13-ACETATE, 16561-29-8
  tumour outcome (control, treated, inhibition, significance): 3/6 (50%), 0/6 (0%), 100%, not calculated

## Cc1ncc(CO)c(CO)c1O
Carcinogen: 7,12-DIMETHYLBENZ[A]ANTHRACENE, 57-97-6, Dose [Inhibitor]: 0.04% IN DRINKING WATER DAILY STARTING 4 WK BEFORE CARCINOGEN TREATMENT AND CONTINUING FOR DURATION OF STUDY (STUDY DURA, Route [Inhibitor]: ORAL, Species: MOUSE, Strain/Sex: 101/MALE, FEMALE, Target Tissue: Type of Lesion: SKIN: PAPILLOMA, Dose [Carcinogen]: 225 UG IN 0.15 ML ACETONE ONCE, Promoter: CROTON OIL, 8001-28-3
  tumour outcome (control, treated, inhibition, significance): 17/19 (89%), 17/18 (94%), -6%, not calculated
Carcinogen: HYDRAZINE SULFATE, 10034-93-2, Dose [Inhibitor]: 1.1 MG/D IN DIET STARTING 1 WK PRIOR TO ADMINISTRATION OF CARCINOGEN UNTIL END OF EXPERIMENT (STUDY DURATION: APPROXIMAT, Route [Inhibitor]: ORAL, Species: MOUSE, Strain/Sex: SWISS/MALE, FEMALE, Target Tissue: Type of Lesion: LUNG: TUMORS, Dose [Carcinogen]: 1.1 MG/D 5 D/WK UNTIL 12 MO OF AGE, Promoter: NONE USED
  tumour outcome (control, treated, inhibition, significance): 22/29 (76%), 26/33 (79%), -4%, not significant
Carcinogen: ISONIAZID, 54-85-3, Dose [Inhibitor]: 1.1 MG/MOUSE/D SIMULTANEOUSLY WITH CARCINOGEN 6 D/WK (STUDY DURATION: 24 MO), Route [Inhibitor]: INTRAGASTRIC, Species: MOUSE, Strain/Sex: SWISS/MALE, Target Tissue: Type of Lesion: LUNG: TUMOR, Dose [Carcinogen]: 1.1 MG/MOUSE/D SIMULTANEOUSLY WITH AGENT, Promoter: NONE USED
  tumour outcome (control, treated, inhibition, significance): 15/29 (52%), 2/12 (17%), 67%, p<0.1
